Experimental data taken from patent US20050272055A1 (priority 2000, published 2005).
“Also recorded” adds a separate entry of the source.

Tests used:
TNF-α = assay type: cell-based, human
human lymphoid cells = assay type: cell-based
CD69 = assay type: cell-based, human
piglets [1] = details: in vivo
piglets [2] = test system: piglets; set-up: species or system Yorkshire piglets; details: in vivo

Compound: C[S+]([O-])c1ccc(-c2nc(-c3ccncc3)c(-c3ccc(F)cc3)[nH]2)cc1 (stereo not shown) [P-38 inhibitor]
- effect on induction of the TNF-α gene by SEB (TNF-α): brought down back to control levels
- effect on SEB-induced proliferation (human lymphoid cells): clearly inhibited
- effect on SEB induction of CD69 (CD69): clearly blocked

Compound: COc1ccc2c(c[n+](C)c3c4cc5c(cc4ccc23)OCO5)c1OC [Chelerythrine]
- effect on SEB-induced TNF-alpha production (TNF-α): blocked production of TNF-α
- effect on SEB-induced proliferation (human lymphoid cells): effectively blocked

Compound: 1,2,3,9-tetrahydro-9-methyl-3-[(2-methyl-1H-imidazol-1-yl)]4H-carbazol-4-one,monohychloride, dehydrate [Zofran]
- BP-24 h (systolic blood pressure) (piglets [1]): 50-60
- BP-48 h (systolic blood pressure) (piglets [1]): 50-65
- Blood Gases (piglets [1]): norm
- Temp-24 h (piglets [1]): 101-103°
- Temp-48 h (piglets [1]): 100-103°
- blood pressure levels in treated and untreated animals (piglets [1]): no change in the blood pressure
- cytokine surge (piglets [1]): blocks the cytokine surge
- diarrhea (piglets [1]): diarrhea was stopped
- effectiveness as 5-HT receptor blockers against SEB-induced incapacitation (piglets [1]): effective
- emesis (piglets [1]): recovered from emesis
- symptoms caused by increase in serotonin levels (piglets [1]): can block the symptoms
- temperature (piglets [1]): slight improvement in lowering the temperature

Compound: CO[C@H]1[C@@H](OC)C[C@H](C)[C@@H](OC)C2=CC(=O)C=C(NC(=O)/C(C)=C/C=C\[C@H](OC)[C@@H](OC(N)=O)/C(C)=C/[C@@H]1C)C2=O [Herbimycin]
- animals showing this outcome (piglets [2]): 2/2
- changes in toxin-induced symptoms compared to the untreated controls (piglets [2]): did not show any significant changes
- pathology versus SEB controls (piglets [2]): No discernable change in pathology
- rescuing the animals (piglets [2]): partially effective

Compound: O=c1c(-c2ccc(O)cc2)coc2cc(O[C@@H]3O[C@H](CO)[C@@H](O)[C@H](O)[C@H]3O)cc(O)c12 [Genistin]
- animals showing this outcome (piglets [2]): 2/2
- changes in toxin-induced symptoms compared to the untreated controls (piglets [2]): did not show any significant changes
- pathology versus SEB controls (piglets [2]): No discernable change in pathology

Compound: CC(=O)CCCCn1c(=O)c2c(ncn2C)n(C)c1=O [Pentoxifylline]
- animals showing this pathology (piglets [2]): 3/3
- animals survived after the treatment (piglets [2]): 3 out of 3
- animals with moderate pathology (piglets [2]): 2/3
- animals worse-off, similar to SEB control (piglets [2]): 1/3
- gross pathology findings (piglets [2]): No perirenal or mesenteric edema, though there is mesenteric lymphadenopathy
- pathology (piglets [2]): Mild pathology; also recorded: Moderate pathology
- time post exposure to SEB up to which it works well (piglets [2]): up to 4 hours

Compound: CN1C2CCCC1CC(NC(=O)c1nn(C)c3ccccc13)C2 (stereo not shown) [Kytril]
- diarrhea (piglets [1]): diarrhea was stopped
- effectiveness as 5-HT receptor blockers against SEB-induced incapacitation (piglets [1]): effective
- symptoms caused by increase in serotonin levels (piglets [1]): can block the symptoms
